# Key:
# [1] = Inhibition of Escherichia coli EntB expressed in Escherichia coli BL21(DE3) using chorismate as substrate after 5 mins by LDH-coupled spectrophotometric assay
# [2] = Competitive inhibition of Escherichia coli EntB expressed in Escherichia coli BL21(DE3) using chorismate as substrate
# [3] = biological target: T1, Chorismatase (Streptomyces hygroscopicus subsp. ascomyceticus, UniProt Q9KID9); test: Inhibition of Streptomyces hygroscopicus subsp. ascomyceticus chorismatase FkbO expressed in Escherichia coli BL21(DE3) using chorismate as substrate after 5 mins by LDH-coupled spectrophotometric assay
# T1 sequence (Q9KID9 whole entry): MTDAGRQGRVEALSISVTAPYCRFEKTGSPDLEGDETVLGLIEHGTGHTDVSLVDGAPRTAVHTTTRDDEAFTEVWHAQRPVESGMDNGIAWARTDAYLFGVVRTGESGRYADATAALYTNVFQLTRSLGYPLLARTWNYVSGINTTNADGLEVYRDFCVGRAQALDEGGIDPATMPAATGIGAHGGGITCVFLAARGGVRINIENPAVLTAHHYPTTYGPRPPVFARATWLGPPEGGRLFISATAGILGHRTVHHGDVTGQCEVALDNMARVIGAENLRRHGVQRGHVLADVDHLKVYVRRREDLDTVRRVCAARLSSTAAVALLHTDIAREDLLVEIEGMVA
# [4] = Inhibition of Streptomyces hygroscopicus hyg5 expressed in Escherichia coli BL21(DE3) using chorismate as substrate after 5 mins by LDH-coupled spectrophotometric assay
# [5] = biological target: T1, Chorismatase; test: Competitive inhibition of Streptomyces hygroscopicus subsp. ascomyceticus chorismatase FkbO expressed in Escherichia coli BL21(DE3) using chorismate as substrate
SMILES,IC50 [1] [µM],Ki [2] [µM],IC50 [3] [µM],IC50 [4] [µM],Ki [5] [µM]
O=C(O)CCc1cccc(C(=O)O)c1,472,282,1090,1250,1020
O=C(O)/C=C/c1cccc(C(=O)O)c1,209,122,45000,68500,19600
